US6358885B1, “Substituted phenylheterocyclic herbicides” (Mississippi State University, priority 1992, dated 2002)

Tests used:
Experiment in all cases: Test B preemergence/postemergence greenhouse plant response rating 0 to 10
Settings in all cases: 0 to 10 scale
lambsquarters = format: in vivo, Chenopodium album
Excerpt: (§1) Seeds of barley (Hordeum vulgare), barnyardgrass (Echinochloa crus-galli), bedstraw (Galium aparine), blackgrass (Alopecurus myosuroides), […] (Bromus secalinus), chickweed (Stellaria media), cocklebur (Xanthium pensylvanicum), corn (Zea mays), cotton (Gossypium hirsutum), crabgrass (Digitaria spp.), giant foxtail (Setaria faberii), lambsquarters (Chenopodium album), morningglory (Ipomoea hederacea), rape (Brassica napus), rice (Oryza sativa), sorghum (Sorghum bicolor), soybean (Glycine max), sugar beet (Beta vulgaris), velvetleaf (Abutilon theophrasti), wheat (Triticum aestivum), wild buckwheat (Polygonum convolvulus), and wild oat (Avena fatua) and purple nutsedge. (Cyperus rotundus) tubers were planted and treated preemergence with test chemicals dissolved in a non-phytotoxic solvent. At the same time, these crop and weed species were also treated with postemergence applications of test chemicals. Plants ranged in height from two to eighteen cm (one to four leaf stage) for postemergence treatments. Treated plants and controls were maintained in a greenhouse for twelve to sixteen days, after which all species were compared to controls and visually evaluated. […] A dash (-) response means no test result.

purple nutsedge = format: in vivo, Cyperus rotundus
Excerpt: as §1

rape = format: in vivo, Brassica napus
Excerpt: as §1

barnyardgrass = format: in vivo, Echinochloa crus-galli
Excerpt: as §1

barley = format: in vivo, Hordeum vulgare
Excerpt: as §1

sugar beet = format: in vivo, Beta vulgaris
Excerpt: as §1

chickweed = format: in vivo, Stellaria media
Excerpt: as §1

sorghum = format: in vivo, Sorghum bicolor
Excerpt: as §1

bedstraw = format: in vivo, Galium aparine
Excerpt: as §1

morningglory = format: in vivo, Ipomoea hederacea
Excerpt: as §1

velvetleaf = format: in vivo, Abutilon theophrasti
Excerpt: as §1

soybean = format: in vivo, Glycine max
Excerpt: as §1

giant foxtail = format: in vivo, Setaria faberii
Excerpt: as §1

rice = format: in vivo, Oryza sativa
Excerpt: as §1

wheat = format: in vivo, Triticum aestivum
Excerpt: as §1

cheatgrass = format: in vivo, Bromus secalinus
Excerpt: as §1

blackgrass = format: in vivo, Alopecurus myosuroides
Excerpt: as §1

crabgrass = format: in vivo, Digitaria spp.
Excerpt: as §1

wild oat = format: in vivo, Avena fatua
Excerpt: as §1

corn = format: in vivo, Zea mays
Excerpt: as §1

wild buckwheat = format: in vivo, Polygonum convolvulus
Excerpt: as §1

cocklebur = format: in vivo, Xanthium pensylvanicum
Excerpt: as §1

cotton = format: in vivo, Gossypium hirsutum
Excerpt: as §1

C=CCOc1cc(-c2nn3c(c2Br)CCCC3)c(F)cc1Cl [Compound 37]
Plant response rating, Lambsquarter (lambsquarters; POSTEMERGENCE, Rate 50 g/ha): 9 | Plant response rating, Lambsquarter (lambsquarters; PREEMERGENCE, Rate 50 g/ha): 10 | Plant response rating, Lambsquarter (lambsquarters; Rate 200 g/ha, POSTEMERGENCE): 10 | Plant response rating, Lambsquarter (lambsquarters; Rate 200 g/ha, PREEMERGENCE): 10 | Plant response rating, Nutsedge (purple nutsedge; POSTEMERGENCE, Rate 50 g/ha): 2 | Plant response rating, Nutsedge (purple nutsedge; PREEMERGENCE, Rate 50 g/ha): 0 | Plant response rating, Nutsedge (purple nutsedge; Rate 200 g/ha, POSTEMERGENCE): 4 | Plant response rating, Nutsedge (purple nutsedge; Rate 200 g/ha, PREEMERGENCE): 0 | Plant response rating, Rape (rape; POSTEMERGENCE, Rate 50 g/ha): 9 | Plant response rating, Rape (rape; Rate 200 g/ha, POSTEMERGENCE): 10 | Plant response rating, Rape (rape; Rate 200 g/ha, PREEMERGENCE): 6 | Plant response rating, Barnyardgrass (barnyardgrass; POSTEMERGENCE, Rate 50 g/ha): 5 | Plant response rating, Barnyardgrass (barnyardgrass; POSTEMERGENCE, Rate 200 g/ha): 7 | Plant response rating, Barnyardgrass (barnyardgrass; PREEMERGENCE, Rate 50 g/ha): 0 | Plant response rating, Barnyardgrass (barnyardgrass; Rate 200 g/ha, PREEMERGENCE): 4 | Plant response rating, Barley (barley; POSTEMERGENCE, Rate 50 g/ha): 4 | Plant response rating, Barley (barley; POSTEMERGENCE, Rate 200 g/ha): 6 | Plant response rating, Barley (barley; PREEMERGENCE, Rate 50 g/ha): 0 | Plant response rating, Barley (barley; Rate 200 g/ha, PREEMERGENCE): 0 | Plant response rating, Sugar beet (sugar beet; POSTEMERGENCE, Rate 50 g/ha): 10 | Plant response rating, Sugar beet (sugar beet; PREEMERGENCE, Rate 50 g/ha): 9 | Plant response rating, Sugar beet (sugar beet; Rate 200 g/ha, POSTEMERGENCE): 10 | Plant response rating, Sugar beet (sugar beet; Rate 200 g/ha, PREEMERGENCE): 9 | Plant response rating, Chickweed (chickweed; POSTEMERGENCE, Rate 50 g/ha): 5 | Plant response rating, Chickweed (chickweed; POSTEMERGENCE, Rate 200 g/ha): 10 | Plant response rating, Chickweed (chickweed; Rate 200 g/ha, PREEMERGENCE): 9 | Plant response rating, Sorghum (sorghum; POSTEMERGENCE, Rate 50 g/ha): 5 | Plant response rating, Sorghum (sorghum; PREEMERGENCE, Rate 50 g/ha): 0 | Plant response rating, Sorghum (sorghum; Rate 200 g/ha, POSTEMERGENCE): 6 | Plant response rating, Sorghum (sorghum; Rate 200 g/ha, PREEMERGENCE): 1 | Plant response rating, Bedstraw (bedstraw; POSTEMERGENCE, Rate 50 g/ha): 7 | Plant response rating, Bedstraw (bedstraw; POSTEMERGENCE, Rate 200 g/ha): 10 | Plant response rating, Bedstraw (bedstraw; Rate 200 g/ha, PREEMERGENCE): 8 | Plant response rating, Morningglory (morningglory; POSTEMERGENCE, Rate 50 g/ha): 7 | Plant response rating, Morningglory (morningglory; PREEMERGENCE, Rate 50 g/ha): 0 | Plant response rating, Morningglory (morningglory; Rate 200 g/ha, POSTEMERGENCE): 8 | Plant response rating, Morningglory (morningglory; Rate 200 g/ha, PREEMERGENCE): 1 | Plant response rating, Velvetleaf (velvetleaf; POSTEMERGENCE, Rate 50 g/ha): 10 | Plant response rating, Velvetleaf (velvetleaf; PREEMERGENCE, Rate 50 g/ha): 1 | Plant response rating, Velvetleaf (velvetleaf; Rate 200 g/ha, POSTEMERGENCE): 10 | Plant response rating, Velvetleaf (velvetleaf; Rate 200 g/ha, PREEMERGENCE): 9 | Plant response rating, Soybean (soybean; POSTEMERGENCE, Rate 50 g/ha): 5 | Plant response rating, Soybean (soybean; PREEMERGENCE, Rate 50 g/ha): 0 | Plant response rating, Soybean (soybean; Rate 200 g/ha, POSTEMERGENCE): 6 | Plant response rating, Soybean (soybean; Rate 200 g/ha, PREEMERGENCE): 4 | Plant response rating, Giant foxtail (giant foxtail; POSTEMERGENCE, Rate 50 g/ha): 5 | Plant response rating, Giant foxtail (giant foxtail; PREEMERGENCE, Rate 50 g/ha): 2 | Plant response rating, Giant foxtail (giant foxtail; Rate 200 g/ha, POSTEMERGENCE): 6 | Plant response rating, Giant foxtail (giant foxtail; Rate 200 g/ha, PREEMERGENCE): 5 | Plant response rating, Rice (rice; POSTEMERGENCE, Rate 50 g/ha): 5 | Plant response rating, Rice (rice; PREEMERGENCE, Rate 50 g/ha): 0 | Plant response rating, Rice (rice; Rate 200 g/ha, POSTEMERGENCE): 6 | Plant response rating, Rice (rice; Rate 200 g/ha, PREEMERGENCE): 0 | Plant response rating, Wheat (wheat; POSTEMERGENCE, Rate 50 g/ha): 4 | Plant response rating, Wheat (wheat; PREEMERGENCE, Rate 50 g/ha): 0 | Plant response rating, Wheat (wheat; Rate 200 g/ha, POSTEMERGENCE): 5 | Plant response rating, Wheat (wheat; Rate 200 g/ha, PREEMERGENCE): 3 | Plant response rating, Cheatgrass (cheatgrass; POSTEMERGENCE, Rate 50 g/ha): 4 | Plant response rating, Cheatgrass (cheatgrass; POSTEMERGENCE, Rate 200 g/ha): 7 | Plant response rating, Cheatgrass (cheatgrass; PREEMERGENCE, Rate 50 g/ha): 5 | Plant response rating, Cheatgrass (cheatgrass; Rate 200 g/ha, PREEMERGENCE): 6 | Plant response rating, Blackgrass (blackgrass; POSTEMERGENCE, Rate 50 g/ha): 4 | Plant response rating, Blackgrass (blackgrass; POSTEMERGENCE, Rate 200 g/ha): 7 | Plant response rating, Blackgrass (blackgrass; PREEMERGENCE, Rate 50 g/ha): 0 | Plant response rating, Blackgrass (blackgrass; Rate 200 g/ha, PREEMERGENCE): 6 | Plant response rating, Crabgrass (crabgrass; POSTEMERGENCE, Rate 50 g/ha): 4 | Plant response rating, Crabgrass (crabgrass; POSTEMERGENCE, Rate 200 g/ha): 5 | Plant response rating, Crabgrass (crabgrass; PREEMERGENCE, Rate 50 g/ha): 0 | Plant response rating, Crabgrass (crabgrass; Rate 200 g/ha, PREEMERGENCE): 7 | Plant response rating, Wild oat (wild oat; POSTEMERGENCE, Rate 50 g/ha): 4 | Plant response rating, Wild oat (wild oat; PREEMERGENCE, Rate 50 g/ha): 2 | Plant response rating, Wild oat (wild oat; Rate 200 g/ha, POSTEMERGENCE): 6 | Plant response rating, Corn (corn; POSTEMERGENCE, Rate 50 g/ha): 6 | Plant response rating, Corn (corn; POSTEMERGENCE, Rate 200 g/ha): 8 | Plant response rating, Corn (corn; PREEMERGENCE, Rate 50 g/ha): 0 | Plant response rating, Corn (corn; Rate 200 g/ha, PREEMERGENCE): 3 | Plant response rating, Wild buckwheat (wild buckwheat; POSTEMERGENCE, Rate 50 g/ha): 9 | Plant response rating, Wild buckwheat (wild buckwheat; PREEMERGENCE, Rate 50 g/ha): 9 | Plant response rating, Wild buckwheat (wild buckwheat; Rate 200 g/ha, POSTEMERGENCE): 10 | Plant response rating, Wild buckwheat (wild buckwheat; Rate 200 g/ha, PREEMERGENCE): 10 | Plant response rating, Cocklebur (cocklebur; POSTEMERGENCE, Rate 50 g/ha): 7 | Plant response rating, Cocklebur (cocklebur; POSTEMERGENCE, Rate 200 g/ha): 10 | Plant response rating, Cocklebur (cocklebur; PREEMERGENCE, Rate 50 g/ha): 0 | Plant response rating, Cocklebur (cocklebur; Rate 200 g/ha, PREEMERGENCE): 0 | Plant response rating, Cotton (cotton; POSTEMERGENCE, Rate 50 g/ha): 10 | Plant response rating, Cotton (cotton; POSTEMERGENCE, Rate 200 g/ha): 10 | Plant response rating, Cotton (cotton; PREEMERGENCE, Rate 50 g/ha): 0 | Plant response rating, Cotton (cotton; Rate 200 g/ha, PREEMERGENCE): 7
